Laboratory results reported in patent US20120232062A1, “AZAINDAZOLES TO TREAT FLAVIVIRIDAE VIRUS INFECTION” (EIGER BIOPHARMACEUTICALS, INC., priority 2009, published 2012).

How the values were obtained:
Assay type in all cases: in vitro ADME
Settings in all cases: human liver microsomes; >75 = low level of inhibition
CYP 1A2 = molecular target: T1, CYP 1A2 (Homo sapiens, UniProt P05177); assay: CYP inhibition testing, CYP 1A2
T1 construct: For human liver microsome solution, a stock solution (20 mg/mL (4×final)) is used; from tissue; host or cells: human liver microsomes
T1 sequence (P05177 1-516): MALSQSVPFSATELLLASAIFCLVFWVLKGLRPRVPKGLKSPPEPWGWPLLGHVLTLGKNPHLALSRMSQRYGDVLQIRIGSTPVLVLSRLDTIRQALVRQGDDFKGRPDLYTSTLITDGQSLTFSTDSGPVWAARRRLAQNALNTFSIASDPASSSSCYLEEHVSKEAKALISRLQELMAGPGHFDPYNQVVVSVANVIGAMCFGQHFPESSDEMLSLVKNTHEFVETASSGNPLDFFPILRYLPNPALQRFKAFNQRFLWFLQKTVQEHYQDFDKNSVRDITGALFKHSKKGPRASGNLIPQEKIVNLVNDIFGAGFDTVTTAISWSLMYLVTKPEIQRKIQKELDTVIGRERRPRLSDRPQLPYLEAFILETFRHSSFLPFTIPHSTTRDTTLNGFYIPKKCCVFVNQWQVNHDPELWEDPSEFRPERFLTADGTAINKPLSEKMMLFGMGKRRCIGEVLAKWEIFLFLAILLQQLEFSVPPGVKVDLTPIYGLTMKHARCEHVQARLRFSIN
Procedure: (§1) Select compounds are tested for CYP inhibition against five different CYP enzymes: CYP 1A2, CYP 2C9, CYP 2C19, CYP 2D6, CYP 3A4. Individual CYP enzymes are incubated with corresponding substrates with no inhibitor (negative control). Individual CYP enzymes are then incubated with corresponding substrates in the presence of test compound. […] Values of 70>v, w, x, y, z>30 indicate moderate level of inhibition of the corresponding enzyme.
(§2) The following reagents are used: Sodium Phosphate, monobasic; Sodium Phosphate, dibasic; β-Nicotinamide Adenine Dinucleotide Phosphate-Reduced (NADPH), Roche; Milli-Q Water; 0.1 M Potassium phosphate buffer (K-buffer), pH 7.4. The following stock solutions are used. Stock A (136.5 g of monobasic potassium phosphate in 1 L of Milli-Q water (1.0 M)). Stock B (174.2 g of dibasic potassium phosphate in 1 L of Milli-Q water (1.0 M)). 40.5 mL of Stock B is mixed with 9.5 mL of Stock A, and the total volume brought near 500 mL with Milli-Q water to give 0.1 M potassium phosphate buffer. The buffer is titrated with KOH or H3PO4 to pH 7.4. To prepare a cofactor buffer (4×, 8 mM NADPH), 66.7 mg of NADPH tetrasodium salt is dissolved in 10 mL of K-buffer. For human liver microsome solution, a stock solution (20 mg/mL (4×final)) is used.
(§3) The following Positive control stock solutions are prepared: 0.3 mM α-Naphthoflavone (MW: 272.3, 0.0817 mg of α-Naphthoflavone in 1 mL DMSO), 10 mM Sulfaphenazole (MW: 314.4, 3.14 mg of sulfaphenazole in 1 mL DMSO) 100 mM Omeprazole (MW: 345.4, 34.54 mg of omeprazole in 1 mL DMSO), 2.5 mM Quinidine (MW: 324, 0.81 mg of quinidine in 1 mL DMSO), and 2.5 mM Ketoconazole (MW: 531.4, 1.33 mg of ketoconazole in 1 mL DMSO).
(§4) The following substrate stock solutions are prepared: 6 mM Phenacetin (MW: 179.22, 1.075 mg of phenacetin in 1 mL can), 10 mM Diclofenac (MW: 318.83, 3.18 mg of Diclofenac in 1 ml H2O), 35 mM S-Mephenyloin (MW: 218.25, 7.64 mg of s-mephenyloin in 1 mL ACN 10 mM Bufuralol (MW: 297.82, 2.98 mg of Bufuralol in 1 ml H2O), 1 mM Midazolam (MW: 325.77, 0.326 mg of midazolam in 1 mL can), and 10 mM Testosterone (MW: 288.42, 2.88 mg of Testosterone in 1 ml ACN.
(§5) Test compounds and reference compounds (positive control) are prepared in 0.2 mg/ml liver microsome solution. A 0.2 mg/ml liver microsome solution (2×final) is prepared from stock solution by adding 10 μL microsome stock solutions (20 mg/ml) in 990 μL K-buffer. 8 μL of 10 mM test compound stock solution (in DMSO or other solvent at various concentrations) is diluted with 12 μL ACN to make 4 mM solutions. 1:3 serial dilutions are performed using DMSO/ACN (40:60) from 4 mM solution further down seven concentration points (400×final): 4 mM, 1.33 mM, 0.44 mM, 0.148 mM, […], 0.0165 mM, 0.00549 mM, 0 mM. […]

CYP 2C19 = molecular target: T2, CYP 2C19 (Homo sapiens, UniProt P33261); assay: CYP inhibition testing, CYP 2C19
T2 construct: For human liver microsome solution, a stock solution (20 mg/mL (4×final)) is used; from tissue; host or cells: human liver microsomes
Procedure: as §1, §2, §3, §4, §5

CYP 2D6 = molecular target: T3, CYP 2D6 (Homo sapiens, UniProt P10635); assay: CYP inhibition testing, CYP 2D6
T3 construct: For human liver microsome solution, a stock solution (20 mg/mL (4×final)) is used; from tissue; host or cells: human liver microsomes
Procedure: as §1, §2, §3, §4, §5

CYP 3A4 = molecular target: T4, CYP 3A4 (Homo sapiens, UniProt P08684); assay: CYP inhibition testing, CYP 3A4
T4 construct: For human liver microsome solution, a stock solution (20 mg/mL (4×final)) is used; from tissue; host or cells: human liver microsomes
Procedure: as §1, §2, §3, §4, §5

T2 sequence (P33261 whole entry): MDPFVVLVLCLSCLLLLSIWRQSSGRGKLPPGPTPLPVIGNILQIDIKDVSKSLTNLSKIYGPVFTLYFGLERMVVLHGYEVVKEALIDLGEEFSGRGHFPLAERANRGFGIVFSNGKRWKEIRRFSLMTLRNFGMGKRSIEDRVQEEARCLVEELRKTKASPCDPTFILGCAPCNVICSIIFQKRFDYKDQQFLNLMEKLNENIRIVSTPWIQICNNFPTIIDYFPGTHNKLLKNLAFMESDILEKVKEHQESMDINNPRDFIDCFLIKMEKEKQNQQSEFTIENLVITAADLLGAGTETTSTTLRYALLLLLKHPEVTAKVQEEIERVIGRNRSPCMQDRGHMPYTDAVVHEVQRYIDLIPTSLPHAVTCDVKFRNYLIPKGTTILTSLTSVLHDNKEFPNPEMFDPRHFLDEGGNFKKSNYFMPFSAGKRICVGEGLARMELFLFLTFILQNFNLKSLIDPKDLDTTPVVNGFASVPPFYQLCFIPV
T3 sequence (P10635 whole entry): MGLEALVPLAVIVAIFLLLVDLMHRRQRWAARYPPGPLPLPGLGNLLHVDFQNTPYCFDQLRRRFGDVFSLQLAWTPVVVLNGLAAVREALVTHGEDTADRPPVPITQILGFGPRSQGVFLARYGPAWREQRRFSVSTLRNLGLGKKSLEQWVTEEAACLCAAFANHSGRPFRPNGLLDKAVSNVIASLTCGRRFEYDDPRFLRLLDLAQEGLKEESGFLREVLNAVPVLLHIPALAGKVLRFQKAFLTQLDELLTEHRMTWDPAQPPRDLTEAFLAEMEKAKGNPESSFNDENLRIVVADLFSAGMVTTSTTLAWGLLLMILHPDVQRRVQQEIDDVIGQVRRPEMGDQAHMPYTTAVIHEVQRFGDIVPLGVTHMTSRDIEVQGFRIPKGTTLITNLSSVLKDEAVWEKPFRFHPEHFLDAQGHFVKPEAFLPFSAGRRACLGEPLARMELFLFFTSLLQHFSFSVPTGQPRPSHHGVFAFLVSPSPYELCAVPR
T4 sequence (P08684 whole entry): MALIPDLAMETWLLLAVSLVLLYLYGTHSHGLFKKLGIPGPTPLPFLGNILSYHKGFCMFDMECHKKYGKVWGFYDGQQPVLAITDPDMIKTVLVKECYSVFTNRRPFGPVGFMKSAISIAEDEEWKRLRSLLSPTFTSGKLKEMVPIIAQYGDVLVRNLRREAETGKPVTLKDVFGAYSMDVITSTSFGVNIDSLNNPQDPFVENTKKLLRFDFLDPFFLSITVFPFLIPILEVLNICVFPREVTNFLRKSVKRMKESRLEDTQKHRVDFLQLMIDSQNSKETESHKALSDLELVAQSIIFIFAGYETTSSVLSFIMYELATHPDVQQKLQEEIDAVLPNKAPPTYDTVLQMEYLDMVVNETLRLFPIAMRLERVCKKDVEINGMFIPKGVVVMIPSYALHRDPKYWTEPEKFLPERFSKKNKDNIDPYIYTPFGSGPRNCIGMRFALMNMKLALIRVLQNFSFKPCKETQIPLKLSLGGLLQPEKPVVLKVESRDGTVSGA

Compound	CYP (% negative controls) 1A2 (CYP 1A2)	CYP (% negative controls) 2C19 (CYP 2C19)	CYP (% negative controls) 2D6 (CYP 2D6)	CYP (% negative controls) 3A4 (CYP 3A4)
Cn1nc(C(=O)NC2CCNCC2)c2ccc(N3CCCCCC3)nc21.O=C(O)C(F)(F)F.O=C(O)C(F)(F)F [compound 697]	97 % negative controls	78 % negative controls	80 % negative controls	110 % negative controls
CCC(CC)Oc1ccc2c(C(=O)NC3CCNCC3)n[nH]c2n1 [compound 726]	102 % negative controls	74 % negative controls	72 % negative controls	60 % negative controls
Cn1nc(C(=O)NC2CCN(CCN3CCCCC3)CC2)c2ccc(N3CCCCCC3)nc21 [compound 1047]	98 % negative controls	92 % negative controls	72 % negative controls	113 % negative controls
Cn1nc(CCCN2CCCC2)c2ccc(N3CCCCCCC3)nc21 [compound 1171]	104 % negative controls	72 % negative controls	62 % negative controls	67 % negative controls
